Test results taken from patent US6187906A, “Methods to improve neural outcome” (Aukland Uniservices Limited, priority 1998, dated 2001).

Assays:
[1] = biological target: IGF-1 receptor (Homo sapiens, UniProt P08069); details: cited from earlier work
[2] = tested on: neurons in the CA1-2 region of the hippocampus; assay type: in vivo, Wistar rats
Experimental: The objective of this study was to compare the effects of treatment with GPE to that of a vehicle given 2 hours after an hypoxic-ischemic injury. The dose range of 2 to 200 μg was chosen to span a range of systemic doses that are greater than that required centrally (see experiment 3).
Unilateral hypoxic-ischemic injury was induced in 21 day old, 45±5 g Wistar rats. The rats underwent unilateral carotid ligation under light halothane anaesthesia.
Following one hour recovery they were placed in an incubator at 34 deg C. 85±5% humidity for one hour before the injury. They were subjected to […] inhalation hypoxia (Fi02.8.0%) and then returned to room temperature (22 deg C.) and normoxia. […]
Surviving and dead neurons were discriminated using the thionin/acid fuchsin staining technique (Guan et al J Cereb Blood Flow Metab. 13:609-616 (1993). The results, in which the height of a point is given by the ratio as a percentage of live neurones in the CA1-2 region on the right side to the number on the left side are shown in FIG. 5. Column A is vehicle, column B is 2 μg of GPE, column C is 20 μg of GPE, and column D is 200 μg of GPE. In this figure, the P value (0.031) was calculated by a method using one way ANOVA comparing many groups after Arcsin transformation.

[3] = tested on: dopamine neurons in the pars compacta region of the substantia nigra; experiment: 6-OHDA lesion, count of TH immunopositive neurons in substantia nigra (Experiments 4 and 5); assay type: in vivo, Wistar rats
Experimental: This experiment was blind with respect to the treatment (with GPE or the vehicle) and with respect to the counting of neurons expressing TH (between sections from animals treated with GPE or vehicle).
The objective of this experiment was to determine the effects of administering GPE on the expression of tyrosine hydroxylase (TH) in the presence or absence of CNS injury. […] Specifically, 9 pairs of adult male Wistar rats (280-320 g) were prepared under 3% halothane/O2 anaesthesia. The oxygen free radical producing neurotoxin 6-hydroxydopamine (6-OHDA) which produces degeneration of dopamine neurones (8 μg/2 μl) was injected into the median forebrain bundle using a 30 gauge needle (coordinates: anterior-posterior +4.7 mm, right +1.6 mm, vertical -8.5 mm). A guide cannula was placed on the dura 7.5 mm anterior from stereotaxic zero and 1.5 mm from the midline on the right. The rats were left to recover at room temperature. […]
The total counts of neurons were compared between the GPE and the vehicle treated group. Data were analysed with paired t-test and presented as mean ±sem.
Experiment 5 was performed using a second set of rats (9 pairs) using the same experimental parameters except that only the immunopositive neurons at 2 levels of the substantia nigra were counted.

Sequence of IGF-1 receptor (P08069 31-736 limits assumed): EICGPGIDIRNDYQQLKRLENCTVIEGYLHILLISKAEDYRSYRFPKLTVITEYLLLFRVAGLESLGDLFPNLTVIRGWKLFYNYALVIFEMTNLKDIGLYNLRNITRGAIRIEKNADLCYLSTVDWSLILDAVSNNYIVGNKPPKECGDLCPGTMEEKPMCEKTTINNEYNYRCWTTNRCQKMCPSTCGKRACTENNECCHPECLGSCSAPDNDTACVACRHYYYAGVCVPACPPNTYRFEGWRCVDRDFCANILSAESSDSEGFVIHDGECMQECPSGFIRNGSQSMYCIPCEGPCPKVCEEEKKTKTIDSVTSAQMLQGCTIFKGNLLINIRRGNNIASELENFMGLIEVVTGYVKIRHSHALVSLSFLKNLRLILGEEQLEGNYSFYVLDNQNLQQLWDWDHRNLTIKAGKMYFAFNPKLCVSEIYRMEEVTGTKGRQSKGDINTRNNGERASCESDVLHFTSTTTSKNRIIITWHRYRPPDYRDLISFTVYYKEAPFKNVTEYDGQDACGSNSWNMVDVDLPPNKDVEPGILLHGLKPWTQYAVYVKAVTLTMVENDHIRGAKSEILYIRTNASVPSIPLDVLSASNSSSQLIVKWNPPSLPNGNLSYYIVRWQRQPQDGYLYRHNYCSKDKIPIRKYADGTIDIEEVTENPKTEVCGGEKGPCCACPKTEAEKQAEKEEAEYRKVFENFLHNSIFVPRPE
Sequence of IGF-1 receptor (P08069 741-1367 partner limits assumed): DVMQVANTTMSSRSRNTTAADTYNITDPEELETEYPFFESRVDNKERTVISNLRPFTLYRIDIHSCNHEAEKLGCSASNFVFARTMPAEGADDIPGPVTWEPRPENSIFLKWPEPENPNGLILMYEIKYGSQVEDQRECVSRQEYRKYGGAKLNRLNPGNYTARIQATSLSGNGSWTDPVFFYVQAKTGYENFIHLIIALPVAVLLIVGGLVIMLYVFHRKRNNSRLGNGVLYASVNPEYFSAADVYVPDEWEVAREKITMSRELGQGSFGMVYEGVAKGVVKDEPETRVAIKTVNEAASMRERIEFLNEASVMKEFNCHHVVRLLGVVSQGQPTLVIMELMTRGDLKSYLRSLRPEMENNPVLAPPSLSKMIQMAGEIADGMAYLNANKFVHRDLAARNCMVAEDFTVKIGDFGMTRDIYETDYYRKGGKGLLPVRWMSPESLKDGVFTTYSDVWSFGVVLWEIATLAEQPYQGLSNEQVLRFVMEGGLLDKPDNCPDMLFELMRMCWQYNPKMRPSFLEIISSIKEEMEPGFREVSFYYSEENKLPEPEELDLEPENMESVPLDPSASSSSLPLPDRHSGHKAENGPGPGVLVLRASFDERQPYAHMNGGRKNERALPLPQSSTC

SMILES: NCC(=O)N1CCC[C@H]1C(=O)N[C@@H](CCC(=O)O)C(=O)O [GPE, gly-pro-glu]
- binding to the IGF-1 receptor [1]: does not
- loss of neurons in the CA1-2 region of the hippocampus ([2]; 20 μg GPE single intraperitoneal injection 2 hours after injury, 120 hrs, p<0.05): reduced the loss of neurons
- crossing of the blood-brain barrier ([2]; rat, in vivo): can cross the blood-brain barrier
- protection of dopaminergic neurons against 6-OHDA (TH expression in SNc) ([3]; Experiments 4 and 5): provided protection
- number of TH immunopositive dopamine neurons ([3]; lesioned (right) side, 3 μg GPE 2 hours after 6-OHDA, 14 days, Experiment 4): increased
